According to patent publication US12552811B2, “Immunosuppressant, and preparation method therefor and use thereof” (Abbisko Therapeutics Co., Ltd., priority 2020, dated 2026):

Columns and labels:
[1] = biological target: interaction between PD-1 and PD-L1 (Homo sapiens (Human), UniProt Q9NZQ7); experiment: PD1-PDL1 HTRF binding activity test; settings: Cisbio PD-1/PD-L1 binding assay kit
Method: I. PD1-PDL1 HTRF Binding Activity Test
The effect of compounds of the examples of the present invention on the interaction between PD-1 and PD-L1 was determined by the PD-1/PD-L1 binding assay kit from Cisbio (#64ICP01PEG or 64ICP01PEH). The detailed experimental process was as follows: • 1) Pre-diluted compound solution, 4 μL of Tag1-PD-L1 and 4 μL of Tag2-PD1 were added to each well of a 384-well plate: • 2) After the mixture was incubated at room temperature for 15 min, 5 μL of anti-Tag1-Eu3+ antibody and 5 μL of anti-Tag2-XL665 antibody were then added; • 3) After incubated for 2 hrs at room temperature or overnight at 4° C., plates were read on Envision of Pelkin Elmer; and readings at 665 nm and 620 nm were recorded, and the ratio of the two readings was taken as a reading for each well; • 4) The reading of each well after compound treatment was compared with the reading of DMSO treated wells to obtain the percent inhibition of the compound; • 5) IC50 values of compounds and positive compounds of the examples of the present invention were determined by non-linear regression analysis of percent inhibition at different compound concentrations. II. Jurkat Reporter Gene Cellular Assay

[2] = Jurkat reporter gene cellular assay; assay type: cell-based; settings: Homo sapiens; Jurkat/NF-κB-luc/PD1 + Raji-PD-L1 coculture, OKT3 1 μg/mL, 6 hrs, activation fold; read-out: Cell Activity EC50
Method: The effect of compounds of the examples of the present invention and positive compounds on the interaction between PD-1 and PD-L1 expressed on cell surfaces, and the related influence on T cell functions, were determined by a Jurkat reporter gene cellular assay.
Briefly, the reporter gene plasmid of NF-κB-luc and the plasmid of human PD-1 were transfected into Jurkat cells to establish a stably transfected cell line capable of stably expressing both PD-1 and NF-κB-Luc reporter genes; the expression level of PD-1 on the cell surface was confirmed by flow cytometry; and the expression of the reporter gene was confirmed via the response of the reporter gene stimulated by OKT-3 and Raiji cells.
In addition, the plasmid of human PD-L1 was transfected into Raji cells to obtain a cell line capable of stably expressing PD-L1. Jurkat/NF-κB-luc/PD1 cells and Raji-PD-L1 cells were then cocultured and stimulated with OKT-3. On this basis, the compounds were added, and the enhancement of the signal pathway of T cell activation by the inhibitory effect of the compounds on the interaction between PD-1 and PD-L1 was evaluated by readings of reporter gene responses. The specific experimental process was as follows: • 1) 30 μL of compound or antibody solution was added to each well of a white 96-well plate (coming, 3610) at different diluted concentrations, and 10 μL of OKT3 (Biolegend, 317326) was then added (the final concentration of OKT3: 1 μg/mL); • 2) 20 μL of Raji-PD-L1 cell suspension was added to each well with 5*10^4 cells for each well, and was incubated in an incubator for 20 min: • 3) 20 μL of Jurkat/NF-κb-luc/PD-1 cell suspension was added to each well with 5*10^4 cells for each well, and well mixed, and 6 hrs later, Bright-glo (Promega, E2620) was applied and plates were read on Envision; • 4) The reading of each well treated with the compound was compared with the reading of each well treated with DMSO to obtain the activation fold of the compound; • 5) EC50 values of compounds and positive compounds of the examples of the present invention were determined by non-linear regression analysis of activation folds at different compound concentrations.

[3] = Pharmacokinetic assay in mice; assay type: in vivo; settings: male, mouse; ICR mice, PO 10 mg/kg, plasma
Method: III. Pharmacokinetic Assay in Mice
The purpose of this study was to study the pharmacokinetic behaviors of some compounds of the present invention, and administration routes were: per oral administration (PO) to ICR mice at a dose of 10 mg/kg.
The compounds used in this test came from the compounds of the specific examples of the present invention.
ICR mice, male, N=3, with the original source of Shanghai Sippr-BK Laboratory Animal Co. Ltd.
2.3 Preparation and Administration of Drug
The compounds were weighed, and dissolved in a solvent of 0.5% SDS+0.5% CMCNa. The mixture solutions were mixed well by shaking and ultrasonic treatment to obtain colorless clear solutions. The solutions were orally administered to nine mice after an overnight fast. The dosage of administration was 10 mg/kg.
• 1) With about 90 μL/time point, blood was drawn from the submaxillary vein, and heparin sodium was added for anticoagulation. The blood samples were placed onto the ice, and were centrifuged (centrifugation conditions: 8000 r/min, 6 min, 2-8° C.) within 1 hr to obtain plasmas. • 2) The time points for blood sampling were at 0 hr, 0.25 hr, 0.5 hr, 1 hr, 2 hrs, 4 hrs, 6 hrs, 8 hrs and 24 hrs after administration. The samples were stored in a refrigerator at −20° C. • 3) 40 μL of plasma sample was added to 160 μL of cold acetonitrile containing an internal standard, and the mixture solution was vortexed for 3 min and centrifuged at 11,000 r/min for 5 min. • 4) 100 μL of supernate was taken and added to 100 μL of water, and 5 μL of the sample was taken and analyzed by LC/MS/MS.
The compounds from some representative examples of the present invention were administered and tested according to the above method, and their prototype compounds were detected.

Chain of interaction between PD-1 and PD-L1 (Q9NZQ7 19-238): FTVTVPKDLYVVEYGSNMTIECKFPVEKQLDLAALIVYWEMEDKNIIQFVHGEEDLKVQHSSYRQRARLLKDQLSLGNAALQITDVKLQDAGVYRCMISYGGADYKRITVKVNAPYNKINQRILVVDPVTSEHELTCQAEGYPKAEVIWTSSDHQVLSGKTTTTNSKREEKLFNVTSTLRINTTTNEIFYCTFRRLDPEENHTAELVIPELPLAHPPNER

EC50 [2] [µM] | SMILES | further results
0.0476 | CCN1CCc2cc(C(=O)Nc3cccc(-c4cccc(NC(=O)c5nc6c(n5C)CCN(CCC57CCC(C(=O)O)(CC5)C7)C6)c4Cl)c3Cl)ncc2C1 [Example 3, 4-(2-(2-((2,2′-dichloro-3′-(7-ethyl-5,6,7,8-tetrahydro-2,7-naphthyridine-3-carboxamido)-[1,1′-biphenyl]-3-yl)carbamoyl)-1-methyl-1,4,6,7-tetrahydro-5H-imidazo[4,5-c]pyridin-5-yl)ethyl)bicyclo[2.2.1] heptane-1-carboxylic acid] | IC50 [1]: 0.000174 µM
0.0544 | Cn1c(C(=O)Nc2cccc(-c3cccc(NC(=O)c4cc5c(cn4)CN(C4COC4)CC5)c3Cl)c2Cl)nc2c1CCN(CCC13CCC(C(=O)O)(CC1)C3)C2 [Example 11, 4-(2-(2-((2,2′-dichloro-3′-(7-(oxetan-3-yl)-5,6,7,8-tetrahydro-2,7-naphthyridine-3-carboxamido)-[1,1′-biphenyl]-3-yl)carbamoyl)-1-methyl-1,4,6,7-tetrahydro-5H-imidazo[4,5-c]pyridin-5-yl)ethyl)bicyclo [2.2.1]heptane-1-carboxylic acid] | IC50 [1]: 0.000109 µM
0.025 | CC(C)N1CCc2cc(C(=O)Nc3cccc(-c4cccc(NC(=O)c5cc(C6CC6)c(CN6CCCC[C@H]6C(=O)O)cn5)c4Cl)c3Cl)ncc2C1 [Example 32, (S)-1-((4-cyclopropyl-6-((2,2′-dichloro-3′-(7-isopropyl-5,6,7,8-tetrahydro-2,7-naphthyridine-3-carboxamido)-[1,1′-biphenyl]-3-yl)carbamoyl)pyridin-3-yl)methyl)piperidine-2-carboxylic acid] | AUC(0-t) [3]: 10200 ng·h/mL; Cmax [3]: 2570 ng/mL; MRT [3]: 2.9 h; Tmax [3]: 0.5 h; half-life [3]: 1.3 h
0.177 | CC(C)N1CCc2cc(C(=O)Nc3cccc(-c4cccc(NC(=O)c5ccc6c(n5)CN(CCC57CCC(C(=O)O)(CC5)C7)CC6)c4Cl)c3Cl)ncc2C1 [Example 68, 4-(2-(2-((2,2′-dichloro-3′-(7-isopropyl-5,6,7,8-tetrahydro-2,7-yridine-3-carboxamido)-[1,1′-biphenyl]-3-yl)carbamoyl)-5,8-dihydro-1,7-naphthyridin-7(6H)-yl)ethyl)bicyclo[2.2.1]heptane-1-carboxylic acid] | –
0.381 | CC(C)N1CCc2cc(C(=O)Nc3cccc(-c4cccc(NC(=O)c5ccc6c(n5)CCN(CCC57CCC(C(=O)O)(CC5)C7)C6)c4Cl)c3Cl)ncc2C1 [Example 69, 4-(2-(2-((2,2′-dichloro-3′-(7-isopropyl-5,6,7,8-tetrahydro-2,7-naphthyridine-3-carboxamido)-[1,1′-biphenyl]-3-yl)carbamoyl)-7,8-dihydro-1,6-naphthyridin-6(5H)-yl)ethyl)bicyclo[2.2.1]heptane-1-carboxylic acid] | –
0.946 | C[C@@H](O)CN1CCc2cc(/C(F)=C/c3cccc(-c4cccc(Nc5nccc6cc(CN[C@H](CO)C(=O)O)cnc56)c4Cl)c3Cl)ncc2C1 [Example 70, ((8-((2,2′-dichloro-3′-((Z)-2-fluoro-2-(7-((R)-2-hydroxypropyl)-5,6,7,8-tetrahydro-2,7-naphthyridin-3-yl)vinyl)-[1,1′-biphenyl]-3-yl)amino)-1,7-naphthyridin-3-yl)methyl)-D-serine] | –
0.772 | CC(C)N1CCc2cc(/C(F)=C/c3cccc(-c4cccc(Nc5nccc6cc(CN[C@H](CO)C(=O)O)cnc56)c4Cl)c3Cl)ncc2C1 [Example 71, (Z)-((8-((2,2′-dichloro-3′-(2-fluoro-2-(7-isopropyl-5,6,7,8-tetrahydro-2,7-naphthyridin-3-yl)vinyl)-[1,1′-biphenyl]-3-yl)amino)-1,7-naphthyridin-3-yl)methyl)-D-serine] | –
1.43 | CCOC(=O)[C@@H](CO)NCc1cnc2c(Nc3cccc(-c4cccc(/C=C(\F)c5cc6c(cn5)CN(C[C@@H](C)O)CC6)c4Cl)c3Cl)nccc2c1 [Example 72, ethyl ((8-((2,2′-dichloro-3′-((Z)-2-fluoro-2-(7-((R)-2-hydroxypropyl)-5,6,7,8-tetrahydro-2,7-naphthyridin-3-yl)vinyl)-[1,1′-biphenyl]-3-yl)amino)-1,7-naphthyridin-3-yl)methyl)-D-serinate] | –
7.64 | CCOC(=O)[C@@H](CO)NCc1cnc2c(Nc3cccc(-c4cccc(/C=C(\F)c5cc6c(cn5)CN(C(C)C)CC6)c4Cl)c3Cl)nccc2c1 [Example 73, ethyl (Z)-((8-((2,2′-dichloro-3′-(2-fluoro-2-(7-isopropyl-5,6,7,8-tetrahydro-2,7-naphthyridin-3-yl)vinyl)-[1,1′-biphenyl]-3-yl)amino)-1,7-naphthyridin-3-yl)methyl)-D-serinate] | –
1.4 | Cc1c(/C=C(\F)c2cc3c(cn2)CN(CCC24CCC(C(=O)O)(CC2)C4)CC3)cccc1-c1cccc(Nc2nccc3cc(CNC[C@@H]4CCC(=O)N4)cnc23)c1C [Example 74, (S,Z)-4-(2-(6-(2-(2,2′-dimethyl-3′-((3-((((5-oxopyrrolidin-2-yl)methyl)amino)methyl)-1,7-naphthyridin-8-yl)amino)-[1,1′-biphenyl]-3-yl)-1-fluorovinyl)-3,4-dihydro-2,7-naphthyridin-2(1H)-yl)ethyl)bicyclo [2.2.1]heptane-1-carboxylic acid] | –
1.13 | O=C1CC[C@@H](CNCc2cnc3c(Nc4cccc(-c5cccc(/C=C(\F)c6cc7c(cn6)CN(CCC68CCC(C(=O)O)(CC6)C8)CC7)c5Cl)c4Cl)nccc3c2)N1 [Example 75, (S,Z)-4-(2-(6-(2-(2,2′-dichloro-3′-((3-((((5-oxopyrrolidin-2-yl)methyl)amino)methyl)-1,7-naphthyridin-8-yl)amino)-[1,1′-biphenyl]-3-yl)-1-fluorovinyl)-3,4-dihydro-2,7-naphthyridin-2(1H)-yl)ethyl)bicyclo [2.2.1]heptane-1-carboxylic acid] | –
0.504 | O=C1CC[C@@H](CNCc2cnc3c(Nc4cccc(-c5cccc(NC(=O)c6cc7c(cn6)CN(CC68CCC(C(=O)O)(CC6)C8)CC7)c5Cl)c4Cl)nccc3c2)N1 [Example 78, (S)-4-((6-((2,2′-dichloro-3′-((3-((((5-oxopyrrolidin-2-yl)methyl)amino)methyl)-1,7-naphthyridin-8-yl)amino)-[1,1′-biphenyl]-3-yl)carbamoyl)-3,4-dihydro-2,7-naphthyridin-2(1H)-yl)methyl)bicyclo[2.2.1] heptane-1-carboxylic acid] | –
